What all share (test): relative viability (nuclei count vs DMSO), 5 days (fraction); higher = more cells survive
For one experiment, the system named is NCI-H2342. The method, boiled down: (§1)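 Values are medians from duplicate plates. Each reflects relative viability, defined as the nuclei count of treated wells over that of vehicle wells. Lung cancer cell lines in 1536-well plates were pin-tool dosed one day after seeding with one drug alone or with a fixed anchor-drug dose plus five library-drug doses (not always all listed) in √10 steps, then fixed, stained and imaged at 4× after 5 days.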

The subject of the next experiment is NCI-H1648. In short, it runs like this: as §1
For the next experiment, the system named is NCI-H522. The method, boiled down: as §1
For a further experiment, the system named is SW 900. The method, boiled down: as §1
In the next experiment the test system is A549. The method, boiled down:
as §1

A further experiment concerns NCI-H1703. In short, it runs like this: as §1

Turning to `O=c1[nH]c2ccccc2n1C1CCN(CCCC(c2ccc(F)cc2)c2ccc(F)cc2)CC1` [Pimozide] + CC(=O)Nc1cccc(-n2c(=O)n(C3CC3)c(=O)c3c(Nc4ccc(I)cc4F)n(C)c(=O)c(C)c32)c1 [Trametinib] (partner 0.02 µM), the relative viability was 0.661 in the experiment on NCI-H2342 (first compound 0.08 µM); 0.872 in the experiment on NCI-H2342 (first compound 0.253 µM); 0.676 in the experiment with NCI-H2342 (first compound 0.8 µM); 0.826 with NCI-H2342 (first compound 2.53 µM); 0.759 with NCI-H2342 (first compound 8 µM); 0.423 in the experiment with NCI-H1648 (first compound 0.08 µM). Besides, the relative viability with NCI-H1648 (first compound 0.8 µM) worked out at 0.34; in the experiment with NCI-H1648 (first compound 2.53 µM) it was 0.373; in the experiment on NCI-H1648 (first compound 8 µM), 0.416; in the experiment on NCI-H522 (first compound 0.08 µM), 0.738; in the experiment with NCI-H522 (first compound 0.253 µM) it was 0.751; in the experiment with NCI-H522 (first compound 0.8 µM), 0.733. Further, the relative viability worked out at 0.746 in the experiment with NCI-H522 (first compound 2.53 µM); 0.811 in the experiment with NCI-H522 (first compound 8 µM); 0.743 in the experiment on SW 900 (first compound 0.08 µM); 0.801 in the experiment on SW 900 (first compound 0.253 µM); 0.72 in the experiment on SW 900 (first compound 2.53 µM); 0.802 in the experiment on SW 900 (first compound 8 µM).

With `Cc1cnc(-c2cnc(NCCNc3ccc(C#N)cn3)nc2-c2ccc(Cl)cc2Cl)[nH]1` + CC(=O)c1c(C)c2cnc(Nc3ccc(N4CCNCC4)cn3)nc2n(C2CCCC2)c1=O [Palbociclib] (partner 0.5 µM), the relative viability with NCI-H2342 (first compound 0.08 µM) turned out to be 0.522; in the experiment on NCI-H2342 (first compound 0.253 µM), 0.516; with NCI-H2342 (first compound 0.8 µM) it was 0.557; in the experiment with NCI-H2342 (first compound 2.53 µM) it was 0.463; in the experiment with NCI-H1648 (first compound 0.08 µM) it was 0.267; in the experiment on NCI-H1648 (first compound 0.253 µM), 0.243. The relative viability in the experiment with NCI-H1648 (first compound 0.8 µM) worked out at 0.265; with NCI-H1648 (first compound 2.53 µM), 0.265; in the experiment on NCI-H522 (first compound 0.08 µM) it was 1.15; in the experiment on NCI-H522 (first compound 0.253 µM) it was 0.927; in the experiment with NCI-H522 (first compound 0.8 µM), 0.974; with NCI-H522 (first compound 2.53 µM) it was 0.862. Moreover, the relative viability in the experiment with SW 900 (first compound 0.08 µM) is 0.565; in the experiment on SW 900 (first compound 0.253 µM), 0.513; in the experiment with SW 900 (first compound 0.8 µM), 0.528; in the experiment on SW 900 (first compound 2.53 µM), 0.515.

`Cc1cnc(-c2cnc(NCCNc3ccc(C#N)cn3)nc2-c2ccc(Cl)cc2Cl)[nH]1` + Nc1ncn([C@H]2C[C@H](O)[C@@H](CO)O2)c(=O)n1 [Decitabine] (partner 2 µM): the relative viability in the experiment with NCI-H2342 (first compound 0.08 µM) was 0.727; in the experiment on NCI-H2342 (first compound 0.253 µM), 0.548; in the experiment on NCI-H2342 (first compound 0.8 µM) it was 0.671; with NCI-H2342 (first compound 2.53 µM) it was 0.66; with A549 (first compound 0.08 µM), 0.257; in the experiment on A549 (first compound 0.253 µM), 0.254. Moreover, the relative viability in the experiment on A549 (first compound 0.8 µM) was found to be 0.262; in the experiment on A549 (first compound 2.53 µM) it was 0.316; in the experiment with NCI-H1648 (first compound 0.08 µM) it was 0.444; in the experiment with NCI-H1648 (first compound 0.253 µM) it was 0.453; in the experiment on NCI-H1648 (first compound 0.8 µM), 0.554; in the experiment with NCI-H1648 (first compound 2.53 µM), 0.541. Also, the relative viability in the experiment on NCI-H522 (first compound 0.08 µM) was 0.779; in the experiment with NCI-H522 (first compound 0.253 µM), 0.68; with NCI-H522 (first compound 0.8 µM), 0.557; in the experiment on NCI-H522 (first compound 2.53 µM), 0.63; in the experiment on SW 900 (first compound 0.08 µM) it was 0.523; with SW 900 (first compound 0.253 µM), 0.436. Further, the figures for the relative viability in the experiment with SW 900 (first compound 0.8 µM) and in the experiment on SW 900 (first compound 2.53 µM) were 0.442 and 0.393, respectively.

Consider `O=C(O)CCCCC(CCSCc1ccccc1)SCc1ccccc1` (configuration not stated) [CPI-613] + CC(=O)c1c(C)c2cnc(Nc3ccc(N4CCNCC4)cn3)nc2n(C2CCCC2)c1=O [Palbociclib] (partner 0.5 µM), for which the relative viability amounted to 0.497 in the experiment on NCI-H2342 (first compound 5 µM); 0.536 in the experiment with NCI-H2342 (first compound 15.81 µM); 0.492 in the experiment on NCI-H2342 (first compound 50 µM); 0.52 with NCI-H2342 (first compound 158.11 µM); 0.588 in the experiment with NCI-H2342 (first compound 500 µM); 0.285 in the experiment with NCI-H1648 (first compound 5 µM). Further, the relative viability is 0.302 in the experiment with NCI-H1648 (first compound 15.81 µM); 0.299 with NCI-H1648 (first compound 50 µM); 0.192 in the experiment on NCI-H1648 (first compound 158.11 µM); 0.128 in the experiment with NCI-H1648 (first compound 500 µM); 1.03 with NCI-H522 (first compound 5 µM); 1.13 in the experiment with NCI-H522 (first compound 15.81 µM). Moreover, the relative viability turned out to be 1.08 in the experiment on NCI-H522 (first compound 50 µM); 0.708 in the experiment with NCI-H522 (first compound 158.11 µM); 0.301 in the experiment on NCI-H522 (first compound 500 µM); 0.57 in the experiment on SW 900 (first compound 5 µM); 0.557 in the experiment with SW 900 (first compound 50 µM); 0.208 in the experiment with SW 900 (first compound 158.11 µM). Besides, in the experiment on SW 900 (first compound 500 µM), the relative viability is 0.0276.

With `Cc1cnc(-c2cnc(NCCNc3ccc(C#N)cn3)nc2-c2ccc(Cl)cc2Cl)[nH]1` + NC(=O)Nc1cc(-c2cccc(F)c2)sc1C(=O)N[C@H]1CCCNC1 [AZD7762] (partner 0.2 µM), the relative viability in the experiment on NCI-H1703 (first compound 0.08 µM) turned out to be 0.14; with NCI-H1703 (first compound 0.253 µM), 0.128; in the experiment with NCI-H1703 (first compound 2.53 µM), 0.13; in the experiment on NCI-H2342 (first compound 0.08 µM), 0.516; in the experiment with NCI-H2342 (first compound 0.253 µM), 0.473; with NCI-H2342 (first compound 0.8 µM) it was 0.484. Also, the relative viability with NCI-H2342 (first compound 2.53 µM) amounted to 0.46; in the experiment on NCI-H1648 (first compound 0.08 µM), 0.542; in the experiment on NCI-H1648 (first compound 0.253 µM), 0.579; with NCI-H1648 (first compound 0.8 µM) it was 0.643; with NCI-H1648 (first compound 2.53 µM) it was 0.624; with NCI-H522 (first compound 0.08 µM), 0.868. Further, the relative viability was found to be 0.798 with NCI-H522 (first compound 0.253 µM); 0.768 in the experiment on NCI-H522 (first compound 0.8 µM); 0.789 with NCI-H522 (first compound 2.53 µM); 0.736 in the experiment on SW 900 (first compound 0.08 µM); 0.548 in the experiment on SW 900 (first compound 0.253 µM); 0.507 in the experiment with SW 900 (first compound 0.8 µM). The relative viability in the experiment on SW 900 (first compound 2.53 µM) worked out at 0.452.

The values are drawn from the supplement of paper PMC10307832.
